According to patent publication US20150141437A1, “AMIDOPHENOXYPROPANOLAMINES” (MEDIZINISCHE UNIVERSITÄT WIEN, priority 2012, published 2015):
pIC50: −log10 of the molar value.

Tests used:
[1] = test system: P. falciparum NF54 (CQ sensitive); experiment: [3H]-hypoxanthine incorporation assay, NF54 strain; assay type: cell-based; conditions: Plasmodium falciparum, values marked with asterisk: [3H]-hypoxanthine assay, read-out: IC50 growth inhibition NF54*
[2] = test system: P. falciparum K1 (CQ-resistant); experiment: [3H]-hypoxanthine incorporation assay, K1 strain; assay type: cell-based; conditions: Plasmodium falciparum, values marked with asterisk: [3H]-hypoxanthine assay, read-out: IC50 growth inhibition K1 (*)

Row | SMILES | pIC50 [1] | pIC50 [2]
1 | O=C(Nc1ccc(F)cc1)c1ccccc1OCC(O)CNC12CC3CC(CC(C3)C1)C2 (stereo not shown) [Compound I-3, 2-[3-(Adamantan-1-ylamino)-2-hydroxy-propoxy]-N-(4-fluoro-phenyl)-benzamide] | 7.29 | 7.96
2 | CC12CC3CC(C)(C1)CC(NCC(O)COc1ccccc1C(=O)Nc1ccc(F)cc1)(C3)C2 (stereo not shown) [Compound I-4, 2-[3-(3,5-Dimethyl-adamantan-1-ylamino)-2-hydroxy-propoxy]-N-(4-fluoro-phenyl)-benzamide] | 7.42 | 8.10
3 | O=C(Nc1ccc(F)cc1)c1ccccc1OCC(O)CN1CCN(C23CC4CC(CC(C4)C2)C3)CC1 (stereo not shown) [Compound I-5, 2-[3-(4-Adamantan-1-yl-piperazin-1-yl)-2-hydroxy-propoxy]-N-(4-fluoro-phenyl)-benzamide] | 7.23 | 7.92
4 | O=C(NCCc1ccccc1)c1cc(Cl)ccc1OCC(O)CNC1C2CC3CC(C2)CC1C3 (stereo not shown) [Compound I-10, 2-[3-(Adamantan-2-ylamino)-2-hydroxy-propoxy]-5-chloro-N-phenethyl-benzamide] | 7.02 | 7.59
5 | CC(C)CCNC(=O)c1ccccc1OCC(O)CNCC12CC3CC(CC(C3)C1)C2 (stereo not shown) [Compound I-24, 2-{3-[(Adamantan-1-ylmethyl)-amino]-2-hydroxy-propoxy}-N-(3-methyl-butyl)-benzamide] | 6.87 | 7.44
6 | CC(C)CCNC(=O)c1ccccc1OCC(O)CNC(C)C12CC3CC(CC(C3)C1)C2 (stereo not shown) [Compound I-25, 2-[3-(1-Adamantan-1-yl-ethylamino)-2-hydroxy-propoxy]-N-(3-methyl-butyl)-benzamide] | 7.13 | 7.74
7 | O=C(NCc1ccc(C(F)(F)F)cc1)c1ccccc1OCC(O)CNCC12CC3CC(CC(C3)C1)C2 (stereo not shown) [Compound I-30, 2-{3-[(Adamantan-1-ylmethyl)-amino]-2-hydroxy-propoxy}-N-(4-trifluoromethyl-benzyl)-benzamide] | 7.24 | 7.74
8 | O=C(NCCc1ccccc1)c1ccccc1OCC(O)CNCC12CC3CC(CC(C3)C1)C2 (stereo not shown) [Compound I-31, 2-{3-[(Adamantan-1-ylmethyl)-amino]-2-hydroxy-propoxy}-N-phenethyl-benzamide] | 7.00 | 7.52
9 | O=C(NCCCc1ccccc1)c1ccccc1OCC(O)CNCC12CC3CC(CC(C3)C1)C2 (stereo not shown) [Compound I-32, 2-{3-[(Adamantan-1-ylmethyl)-amino]-2-hydroxy-propoxy}-N-(3-phenyl-propyl)-benzamide] | 6.83 | 7.28
10 | O=C(NCCc1ccccc1)c1cc(Cl)ccc1OCC(O)CNCC12CC3CC(CC(C3)C1)C2 (stereo not shown) [Compound I-33, 2-{3-[(Adamantan-1-ylmethyl)-amino]-2-hydroxy-propoxy}-5-chloro-N-phenethyl-benzamide] | 7.57 | 8.10
11 | O=C(NCc1cccc2ccccc12)c1cc(Cl)ccc1OCC(O)CNCC12CC3CC(CC(C3)C1)C2 (stereo not shown) [Compound I-34, 2-{3-[(Adamantan-1-ylmethyl)-amino]-2-hydroxy-propoxy}-5-chloro-N-naphthalen-1-ylmethyl-benzamide] | 7.70 | 8.30
12 | CC(NCC(O)COc1ccc(Cl)cc1C(=O)NCc1cccc2ccccc12)C12CC3CC(CC(C3)C1)C2 (stereo not shown) [Compound I-35, 2-[3-(1-Adamantan-1-yl-ethylamino)-2-hydroxy-propoxy]-5-chloro-N-naphthalen-1-ylmethyl-benzamide] | 7.85 | 8.40
13 | CN(CC(O)COc1ccccc1C(=O)NCc1ccccc1)CC12CC3CC(CC(C3)C1)C2 (stereo not shown) [Compound I-36, 2-[3-(Adamantan-1-ylmethyl-methyl-amino)-2-hydroxy-propoxy]-N-benzyl-benzamide] | 6.17 | 6.74
14 | CN(CC(O)COc1ccccc1C(=O)Nc1ccc(F)cc1)CC12CC3CC(CC(C3)C1)C2 (stereo not shown) [Compound I-37, 2-[3-(Adamantan-1-ylmethyl-methyl-amino)-2-hydroxy-propoxy]-N-(4-fluoro-phenyl)-benzamide] | 7.20 | 7.80
15 | O=C(Nc1ccccc1F)c1ccccc1OCC(O)CNCC12CC3CC(CC(C3)C1)C2 (stereo not shown) [Compound I-38, 2-{3-[(Adamantan-1-ylmethyl)-amino]-2-hydroxy-propoxy}-N-(2-fluoro-phenyl)-benzamide] | 7.62 | 8.10
16 | CN(CC(O)COc1ccccc1C(=O)NCc1ccc(C2(C(F)(F)F)N=N2)cc1)C1C2CC3CC(C2)CC1C3 (stereo not shown) [Compound I-43, 2-[3-(Adamantan-2-yl-methyl-amino)-2-hydroxy-propoxy]-N-[4-(3-trifluoromethyl-3H-diazirin-3-yl)-benzyl]-benzamide] | 6.92 | 7.55
17 | C#CCOc1ccc(OCC(O)CNCc2ccc(C3(C(F)(F)F)N=N3)cc2)c(C(=O)Nc2ccc(F)cc2)c1 (stereo not shown) [Compound I-45, N-(4-Fluoro-phenyl)-2-{2-hydroxy-3-[4-(3-trifluoromethyl-3H-diazirin-3-yl)-benzylamino]-propoxy}-5-prop-2-ynyloxy-benzamide] | 5.73 | 6.27
18 | O=C(Nc1ccc(F)cc1)c1ccccc1OCC(O)CN1CCC(c2ccccc2)CC1 (stereo not shown) [Compound I-46, N-(4-Fluoro-phenyl)-2-[2-hydroxy-3-(4-phenyl-piperidin-1-yl)-propoxy]-benzamide] | 7.59 | 8.05

Row | SMILES | pIC50 [1] | pIC50 [2]
19 | O=C(Nc1ccc(F)cc1)c1ccccc1OCC(O)CN1CCC(Cc2ccccc2)CC1 (stereo not shown) [Compound I-47, 2-[3-(4-Benzyl-piperidin-1-yl)-2-hydroxy-propoxy]-N-(4-fluoro-phenyl)-benzamide] | 7.80 | 8.15
20 | O=C(Nc1ccc(F)cc1)c1ccccc1OCC(O)CN1CCN(C(c2ccccc2)c2ccccc2)CC1 (stereo not shown) [Compound I-48, 2-[3-(4-Benzhydryl-piperazin-1-yl)-2-hydroxy-propoxy]-N-(4-fluoro-phenyl)-benzamide] | 7.85 | 8.40
21 | CCCCNCC(O)COc1ccccc1C(=O)NCCC(C)C (stereo not shown) [Compound I-56, 2-(3-Butylamino-2-hydroxy-propoxy)-N-(3-methyl-butyl)-benzamide] | 5.56 | 6.08
22 | CCCCN(CCCC)CC(O)COc1ccccc1C(=O)NCCC(C)C (stereo not shown) [Compound I-57, 2-(3-Dibutylamino-2-hydroxy-propoxy)-N-(3-methyl-butyl)-benzamide] | 6.48 | 7.12
23 | CC(C)CCNCC(O)COc1ccccc1C(=O)NCCC(C)C (stereo not shown) [Compound I-58, 2-[2-Hydroxy-3-(3-methyl-butylamino)-propoxy]-N-(3-methyl-butyl)-benzamide] | 5.77 | 6.33
24 | CC(C)CCNC(=O)c1ccccc1OCC(O)CNCc1ccc(C(F)(F)F)cc1 (stereo not shown) [Compound I-60, 2-[2-Hydroxy-3-(4-trifluoromethyl-benzylamino)-propoxy]-N-(3-methyl-butyl)-benzamide] | 5.87 | 6.43
25 | CCCCN(CCCC)CC(O)COc1ccccc1C(=O)Nc1ccc(F)cc1 (stereo not shown) [Compound I-61, 2-(3-Dibutylamino-2-hydroxy-propoxy)-N-(4-fluoro-phenyl)-benzamide] | 7.74 | 8.22
26 | C=CCNCC(O)COc1ccccc1C(=O)Nc1ccccc1CC=C (stereo not shown) [Compound I-65, 2-(3-Allylamino-2-hydroxy-propoxy)-N-(2-allyl-phenyl)-benzamide] | 5.59 | 6.31
27 | O=C(Nc1ccc(F)cc1)c1cc(Cl)ccc1OCC(O)CNCC12CC3CC(CC(C3)C1)C2 (stereo not shown) [Compound I-66, 2-{3-[(Adamantan-1-ylmethyl)-amino]-2-hydroxy-pro-poxy}-5-chloro-N-(4-fluoro-phenyl)-benzamide] | 8.62 | 9.22
28 | O=C(Nc1cccc(C(F)(F)F)c1)c1ccccc1OCC(O)CN1CCC(c2ccccc2)CC1 (stereo not shown) [Compound I-67, 2-[2-Hydroxy-3-(4-phenyl-piperidin-1-yl)-propoxy]-N-(3-trifluoromethyl-phenyl)-benzamide] | 8.06 | 8.66
29 | O=C(Nc1cccc(C(F)(F)F)c1)c1ccccc1OCC(O)CN1CCC(Cc2ccccc2)CC1 (stereo not shown) [Compound I-68, 2-[3-(4-Benzyl-piperidin-1-yl)-2-hydroxy-propoxy]-N-(3-trifluoromethyl-phenyl)-benzamide] | 8.07 | 8.64
30 | O=C(Nc1cccc(C(F)(F)F)c1)c1ccccc1OCC(O)CN1CCN(C(c2ccccc2)c2ccccc2)CC1 (stereo not shown) [Compound I-69, 2-[3-(4-Benzhydryl-piperazin-1-yl)-2-hydroxy-propoxy]-N-(3-trifluoromethyl-phenyl)-benzamide] | 8.26 | 8.89
31 | O=C(Nc1cccc(C(F)(F)F)c1)c1ccccc1OCC(O)CNC12CC3CC(CC(O)(C3)C1)C2 (stereo not shown) [Compound I-70, 2-[2-Hydroxy-3-(3-hydroxy-adamantan-1-ylamino)-propoxy]-N-(3-trifluoromethyl-phenyl)-benzamide] | 5.82 | 6.04
32 | O=C(Nc1ccc2ccccc2c1)c1ccccc1OCC(O)CNCC12CC3CC(CC(C3)C1)C2 (stereo not shown) [Compound I-71, 2-{3-[(Adamantan-1-ylmethyl)-amino]-2-hydroxy-propoxy}-N-naphthalen-2-yl-benzamide] | 8.21 | 8.74
33 | O=C(Nc1cccc(C(F)(F)F)c1)c1cc(Cl)ccc1OCC(O)CNCC12CC3CC(CC(C3)C1)C2 (stereo not shown) [Compound I-72, 2-{3-[(Adamantan-1-ylmethyl)-amino]-2-hydroxy-propoxy}-5-chloro-N-(3-trifluoromethyl-phenyl)-benzamide] | 8.38 | 9.00
34 | C=CCc1ccccc1NC(=O)c1ccccc1OCC(O)CNCC12CC3CC(CC(C3)C1)C2 (stereo not shown) [Compound I-73, 2-{3-[(Adamantan-1-ylmethyl)-amino]-2-hydroxy-propoxy}-N-(2-allyl-phenyl)-benzamide] | 7.14 | 7.68
35 | O=C(Nc1ccc(Br)cc1)c1ccccc1OCC(O)CNCC12CC3CC(CC(C3)C1)C2 (stereo not shown) [Compound I-74, 2-{3-[(Adamantan-1-ylmethyl)-amino]-2-hydroxy-propoxy}-N-(4-bromo-phenyl)-benzamide] | 8.32 | 8.92
